Experiment [1] deals with T1, Sialidase (Clostridium perfringens, UniProt P10481).
T1 sequence (P10481 whole entry): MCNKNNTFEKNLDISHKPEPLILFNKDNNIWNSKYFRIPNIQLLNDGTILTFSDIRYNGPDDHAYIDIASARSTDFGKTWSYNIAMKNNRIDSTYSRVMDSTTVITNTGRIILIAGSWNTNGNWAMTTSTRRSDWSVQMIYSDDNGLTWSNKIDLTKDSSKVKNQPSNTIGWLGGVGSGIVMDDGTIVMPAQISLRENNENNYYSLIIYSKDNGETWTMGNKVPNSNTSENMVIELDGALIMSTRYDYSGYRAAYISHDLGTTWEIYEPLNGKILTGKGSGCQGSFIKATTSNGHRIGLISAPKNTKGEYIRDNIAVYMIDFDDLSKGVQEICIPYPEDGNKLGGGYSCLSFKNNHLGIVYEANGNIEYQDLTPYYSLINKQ
Nature of the experiment: Inhibition of Clostridium perfringens neuraminidase.

The target in experiment [2] is T2, Neuraminidase (Influenza A virus, UniProt B4URF0). Description: Inhibition of Influenza A H1N1 virus neuraminidase activity after 2 hrs by spectrofluorometry.
The target of experiment [3] is T2, Neuraminidase. Description: Noncompetitive inhibition of Influenza A H1N1 virus neuraminidase activity by Lineweaver-Burk plot analysis.
For experiment [4], the target named is T2, Neuraminidase. Nature of the experiment: Inhibition of Influenza A H9N2 virus neuraminidase activity after 2 hrs by spectrofluorometry.
The target of experiment [5] is T2, Neuraminidase. The format is cell-based, H1N1 swine influenza virus, HEK-293T.

As to `COc1c(/C=C/C(=O)c2ccc(O)c(CC=C(C)C)c2)ccc(O)c1O` [LICOCHALCONE D], the IC50 (commonly the concentration that inhibits the measured activity by half) in experiment [1] was 3.33 µM; in experiment [2], 80.8 µM; in experiment [3], 103 µM; in experiment [4] it was 99.4 µM.

With `CC(C)=CCc1cc(/C=C/C(=O)c2ccc(O)cc2O)cc(O)c1O` [5'-PRENYLBUTEIN], the IC50 in experiment [1] is 9.25 µM; in experiment [2], 76 µM; in experiment [3], 96.3 µM; in experiment [4] it was 104 µM.

Consider `COc1cc(O)ccc1/C=C/C(=O)c1ccc(O)cc1` [ECHINATIN], for which the IC50 in experiment [5] was 9.21 µM; in experiment [2] it was 21.5 µM; in experiment [3], 30.4 µM; in experiment [4], 21.1 µM.

As to `CC(C)=CCc1cc(/C=C/C(=O)c2ccc(O)c(CC=C(C)C)c2O)ccc1O` [KANZONOL C], the IC50 is 1.12 µM in experiment [1], 192 µM in experiment [2], 212 µM in experiment [3] and 135 µM in experiment [4].

With `C=CC(C)(C)c1cc(/C=C/C(=O)c2ccc(O)cc2)c(OC)cc1O` [LICOAGROCHACONE A], the half-inhibitory concentration (IC50) in experiment [5] was 16 µM; in experiment [1], 20.4 µM; in experiment [2] it was 56.4 µM; in experiment [3], 53.9 µM; in experiment [4] it was 53.1 µM.

With `C=CC(C)(C)c1cc(/C=C/C(=O)c2ccc(O)cc2O)c(OC)cc1O` [LICOCHALCONE G], the IC50 in experiment [1] was 2.37 µM; in experiment [2], 106 µM; in experiment [3], 117 µM; in experiment [4] it was 119 µM.

`CC(C)=CCc1cc(/C=C/C(=O)c2ccc(O)cc2O)ccc1O` [LICOAGROCHALCONE A]: the IC50 was 1.6 µM in experiment [1], 159 µM in experiment [2], 185 µM in experiment [3] and 175 µM in experiment [4].

In experiment [1], `O=C(/C=C/c1ccc(O)cc1)c1ccc(O)cc1O` [ISOLIQUIRITIGENIN] gave an IC50 of 44 µM.

The values are drawn from ChEMBL document CHEMBL1641552 (Bioorg Med Chem Lett, 2011).
